Four molecules from patent publication US20240261250A1 (priority 2020, published 2024) can be followed below.

Each structure is given as a SMILES string.

The subject of data set [1] is SH-SY5Y cells. In kind it is cell-based.
The test system of data set [2] is SH-SY5Y cells. In kind it is cell-based. This is another data set of the same source.
The subject of data set [3] is SH-SY5Y cells.
Data set [4] has as its system SH-SY5Y cells. The data set is classed as cell-based. This is another data set of the same source.

Take `O[C@H]1[C@H](O)[C@@H](O)[C@@H]2O[C@@H]2[C@@H]1O` (racemic) [CBE, Conduritol B Epoxide]: in the data set with SH-SY5Y cells [1], the “immunofluorescence intensity of Lyso-tracker” value is on record as “increased significantly” and the “number of Lyso-tracker labeled positive cells” value was “significantly increased”. In addition, the “concentration of GlcCer of various side chains in cells” value in the data set on SH-SY5Y cells [2] is “much higher”. Moreover, the cell viability result in the data set on SH-SY5Y cells [3] was “significantly inhibited”.

Regarding `CO/C1=C\C(C)=C\[C@@H](C)[C@@H](O)[C@@H](C)C/C(C)=C/C=C/[C@H](OC)[C@@H]([C@@H](C)[C@@H](O)[C@H](C)[C@@]2(O)C[C@@H](O)[C@H](C)[C@@H](C(C)C)O2)OC1=O` [Baf-A1, Bafilomycin A1], in the data set with SH-SY5Y cells [3], the cell viability result was “not significantly different” and the “effect on the protection by PAO (cell viability)” value is given as “decreased the protection effect of PAO”.

For the molecule `COc1ncc(-c2ccc3nc(N)n(-c4ccc(N5CCOCC5)cc4)c3c2)cc1S(=O)(=O)Nc1ccccc1F` [A1, 5-(2-amino-1-(4-(4-morpholinyl)phenyl)-1H-benzimidazol-6-yl)-N-(2-fluorophenyl)-2-methoxy-3-pyridinesulfonamide], in the data set with SH-SY5Y cells [1], the “Lyso-tracker labeled positive cells” value is listed as “fewer Lyso-tracker labeled positive cells”.

For `CCN(CC)CCO[C@H]1CC[C@@]2(C)C(=CC[C@@H]3[C@@H]2CC[C@]2(C)C(=O)CC[C@@H]32)C1` [U18666A], the “Filipin staining fluorescence intensity” value in the data set with SH-SY5Y cells [4] is given as “enhanced”.
